Measurements taken from patent publication US6818212B2, “Antimicrobial composition containing a haloperoxidase, a hydrogen peroxide source, a halide source and an ammonium source” (Novozymes A/S, priority 1997, dated 2004).

Experiments:
Assay type in all cases: cell-based
[1] = test system: Staphylococcus epidermidis DSM 20 042; experiment: Bactericidal activity of haloperoxidase with ammonium halides vs potassium/sodium halides as electron donors, Example 3; settings: for bactericidal activity (possible): ammonium halide salt as electron donor, summary of Table 1; for Log reduction in cell number: haloperoxidase 1 mg/l, 0.5 mM H2O2, pH 6.0, 15 min 40° C.
Protocol: (§1) The bactericidal activity was determined by incubation in Malthus. The detection times measured by the Malthus instrument were converted to cfu/ml by a calibration curve.
(§2) Either direct or indirect Malthus measurements were used when enumerating total survival cells (Malthus Flexi M2060, Malthus Instrument Limited). By the direct measurements, the cell metabolism was determined by conductance measurements in the growth substrate. By the indirect measurements, 3 ml of growth medium was transferred to the outer chamber of the indirect Malthus cells, and 0.5 ml of sterile KOH (0.1 M) was transferred to the inner chamber. The cell suspensions were after enzyme treatment transferred to the outer chamber of the Malthus cell. As cells are growing in the outer chamber they produce CO2 which will dissolve in the KOH in the inner chamber and thereby change the conductance of the KOH. The amount of CO2 formed by the respiring cells surviving the enzyme treatment was used for estimating the number of viable cells. When the conductance change is measurable by the Malthus, a detection time (dt) will be recorded. The dt's were converted to colony counts by use of a calibration curve relating cfu/ml to dt (FIG. 1).
(§3) The antibacterial activity of a haloperoxidase (1 mg/l) was tested in MES-buffer (2-[N-morpholino] ethanesulfonic acid) (pH 6.0) against Staphylococcus epidermidis DSM 20 042 with ammonium iodide, ammonium chloride or ammonium bromide as electron donors, and hydrogen peroxide was added as electron acceptor giving the final concentration 0.5 mM. The cells (approximately 10^6 cfu/ml) were incubated with enzyme for 15 min at 40° C. The bactericidal activity was determined by incubation in Malthus (see Example 1).

[2] = test system: Staphylococcus epidermidis DSM 20 042; experiment: Bactericidal activity of haloperoxidase with iodide or bromide, with or without NH4+, Example 2; settings: haloperoxidase 1 mg/l
Protocol: as §1, §2
as §3, with “potassium iodide and potassium” for “ammonium iodide, ammonium chloride or ammonium”, “donor,” for “donors,”, “peroxide (to a final concentration of 0.5 mM)” for “peroxide”, “in” for “giving”, “presence of NH4^+.” for “final concentration 0.5 mM.”

[3] = test system: Staphylococcus epidermidis DSM 20 042; experiment: Bactericidal activity of haloperoxidase with chloride and ethanolamine, HEPES pH 7.0, Example 4; settings: haloperoxidase 1 mg/L, chloride 80 mM, ethanolamine 2.5 mM, 0.5 mM H2O2, pH 7.0
Protocol: as §1
as §2, with “The amount of CO2 formed by the respiring cells surviving the enzyme treatment was used for estimating the number of viable cells.” left out, “The dt's were converted to colony counts by use of a calibration curve relating cfu/ml to dt (FIG. 1).” left out
The antibacterial activity of Curvularia verruculosa haloperoxidase (1 mg/L) was tested in HEPES-buffer (Sigma H3375)(pH 7.0) against Staphylococcus epidermidis DSM 20 042 with chloride (80 mM) as electron donor combined with ethanolamine (2.5 mM), and hydrogen peroxide was added as electron acceptor giving the final concentration 0.5 mM. […] The bactericidal activity was determined by incubation in Malthus (see Example 1).

[4] = test system: Pseudomonas aeruginosa ATCC 10146; experiment: Bactericidal activity of haloperoxidase (rCvP) system, Malthus detection, Example 1; settings: haloperoxidase 1 mg/l, 0.5 mM H2O2, pH 6
Protocol: (§4) The antibacterial activity of a haloperoxidase was tested in MES-buffer (2-[N-morpholino] ethanesulfonic acid)(pH 6.0) against Pseudomonas aeruginosa ATCC 10146 and Staphylococcus epidermidis DSM 20 042 with sodium chloride as electron donor, and hydrogen peroxide was added as electron acceptor in the presence of NH4+. The cells (approximately 10^6 cfu/ml) were incubated with the enzyme for 15 min at 40° C.
as §1, §2
(§5) Hydrogen peroxide was added to a final concentration of 0.5 mM.

[5] = test system: Staphylococcus epidermidis DSM 20 042; experiment: as above; settings: haloperoxidase 1 mg/l, 0.5 mM H2O2, pH 6
Protocol: as §4, §1, §2, §5

[6] = 0.5 mM H2O2, pH 6.0, no ammonium

Br.N [BrNH4, ammonium bromide]
bactericidal activity (possible) [1]: 100% | Log reduction in cell number ([1]; halide 4 mM): 3.7 log cfu/ml | Log reduction in cell number ([1]; halide 8 mM): 6.2 log cfu/ml

[I-].[K+] [KI, potassium iodide]
Log reduction in cell number ([1]; halide 0.25 mM): 5.1 log cfu/ml | Log reduction in cell number ([1]; halide 0.5 mM): 6.1 log cfu/ml | iodide concentration for 100% bactericidal activity ([2]; 0.5 mM H2O2, pH 6.0, ammonium added (FIG. 3)): 0.05-0.1 mm | iodide concentration for 100% antibacterial activity [2, 6]: about 0.2 mM

Cl.N [ClNH4, ammonium chloride]
bactericidal activity (possible) [1]: 100% | Log reduction in cell number ([1]; halide 25 mM): 6.2 log cfu/ml | Log reduction in cell number ([1]; halide 50 mM): 6.2 log cfu/ml

[Br-].[K+] [KBr, potassium bromide]
Log reduction in cell number ([1]; halide 4 mM): 2.8 log cfu/ml | Log reduction in cell number ([1]; halide 8 mM): 5.4 log cfu/ml | bromide concentration needed for 100% bactericidal activity [2, 6]: > 10 mM

NCCO [ethanolamine]
kill [3]: 100%

[Cl-].[Na+] [NaCl, sodium chloride]
NaCl concentration at which antibacterial activity was observed [4]: above 20 mM | NaCl concentration at which plateau of antibacterial activity was reached [4]: approximately 100 mM | NaCl concentration at which antibacterial activity was observed [5]: above 20 mM | NaCl concentration at which plateau of antibacterial activity was reached [5]: approximately 100 mM | Log reduction in cell number ([1]; halide 25 mM): 0.5 log cfu/ml | Log reduction in cell number ([1]; halide 50 mM): 0.8 log cfu/ml

I.N [INH4, ammonium iodide]
bactericidal activity (possible) [1]: 100% | Log reduction in cell number ([1]; halide 0.21 mM): 6.2 log cfu/ml | Log reduction in cell number ([1]; halide 0.5 mM): 6.2 log cfu/ml
